From ChEMBL document CHEMBL1132382 (J Med Chem, 1999)
≈ marks a conversion by molar mass, not a printed value.

Assays:
physchem = details: buffer, pH 7.4
Oryctolagus cuniculus [1] = species on record: Oryctolagus cuniculus; experiment: The compound was evaluated for fall in intraocular pressure (IOP) of Normotensive rabbits after treatment with one drop (50 microL) of a 2% solution at 60 min (pH 7.5); type: functional, Eye
[2] = not given; remark: listed apart in the source
[3] = octanol/water
Description: Partition coefficient (logD) (chloroform/buffer)

Oryctolagus cuniculus [4] = species on record: Oryctolagus cuniculus; experiment: The compound was evaluated for fall in intraocular pressure (IOP) of Normotensive rabbits after treatment with one drop (50 microL) of a 2% solution at 30 min (pH 7.5); type: functional, Eye
Oryctolagus cuniculus [5] = species on record: Oryctolagus cuniculus; experiment: The compound was evaluated for fall in intraocular pressure (IOP) of glaucomatous rabbits after treatment with one drop (50 microL) of a 2% solution at 60 min (pH 7.5); type: functional, Eye
Oryctolagus cuniculus [6] = species on record: Oryctolagus cuniculus; experiment: The compound was evaluated for fall in intraocular pressure (IOP) of Normotensive rabbits after treatment with one drop (50 microL) of a 2% solution at 0 min (pH 7.5); type: functional, Eye
Oryctolagus cuniculus [7] = species on record: Oryctolagus cuniculus; experiment: The compound was evaluated for fall in intraocular pressure (IOP) of glaucomatous rabbits after treatment with one drop (50 microL) of a 2% solution at 90 min (pH 7.5); type: functional, Eye
Oryctolagus cuniculus [8] = species on record: Oryctolagus cuniculus; experiment: The compound was evaluated for fall in intraocular pressure (IOP) of glaucomatous rabbits after treatment with one drop (50 microL) of a 2% solution at 30 min (pH 7.5); type: functional, Eye
Carbonic anhydrase 4 = target: T1, Carbonic anhydrase 4 (Bos taurus, UniProt Q95323)
T1 sequence (Q95323 whole entry): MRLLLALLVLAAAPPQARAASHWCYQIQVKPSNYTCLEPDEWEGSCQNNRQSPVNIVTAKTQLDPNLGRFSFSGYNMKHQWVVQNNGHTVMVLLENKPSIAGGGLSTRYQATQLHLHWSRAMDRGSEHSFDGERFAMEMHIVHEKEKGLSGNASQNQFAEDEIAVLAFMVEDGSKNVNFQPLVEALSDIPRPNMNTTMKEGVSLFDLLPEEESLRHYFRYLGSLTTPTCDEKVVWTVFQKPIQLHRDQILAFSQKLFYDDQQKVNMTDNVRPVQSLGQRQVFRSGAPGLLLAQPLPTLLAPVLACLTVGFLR
Description: Inhibitory activity against bovine carbonic anhydrase IV (CA4), isolated from bovine lung microsomes

Carbonic anhydrase 1 = Carbonic anhydrase 1 (Homo sapiens, UniProt P00915)
Sequence of Carbonic anhydrase 1 (P00915 whole entry): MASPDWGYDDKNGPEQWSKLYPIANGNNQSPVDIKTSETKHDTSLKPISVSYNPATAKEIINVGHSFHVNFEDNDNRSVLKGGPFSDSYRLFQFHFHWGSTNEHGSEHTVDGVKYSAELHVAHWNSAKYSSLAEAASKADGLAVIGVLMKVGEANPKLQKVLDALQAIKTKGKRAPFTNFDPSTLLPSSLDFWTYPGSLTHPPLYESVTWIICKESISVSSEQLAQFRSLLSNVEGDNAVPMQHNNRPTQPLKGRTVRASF
Description: Inhibitory activity against human recombinant carbonic anhydrase I (CA1)

Oryctolagus cuniculus [9] = species on record: Oryctolagus cuniculus; experiment: The compound was evaluated for fall in intraocular pressure (IOP) of Glaucomatous rabbits after treatment with one drop (50 microL) of a 2% solution at 60 min (pH 7.5); type: functional, Eye
Oryctolagus cuniculus [10] = species on record: Oryctolagus cuniculus; experiment: The compound was evaluated for fall in intraocular pressure (IOP) of Glaucomatous rabbits after treatment with one drop (50 microL) of a 2% solution at 30 min (pH 7.5); type: functional, Eye
Oryctolagus cuniculus [11] = species on record: Oryctolagus cuniculus; experiment: The compound was evaluated for fall in intraocular pressure (IOP) of Glaucomatous rabbits after treatment with one drop (50 microL) of a 2% solution at 90 min (pH 7.5); type: functional, Eye
Oryctolagus cuniculus [12] = species on record: Oryctolagus cuniculus; experiment: The compound was evaluated for fall in intraocular pressure (IOP) of Glaucomatous rabbits after treatment with one drop (50 microL) of a 2% solution at 0 min (pH 7.5); type: functional, Eye
Oryctolagus cuniculus [13] = species on record: Oryctolagus cuniculus; experiment: The compound was evaluated for fall in intraocular pressure (IOP) of Normotensive rabbits after treatment with one drop (50 microL) of a 2% solution at 90 min (pH 7.5); type: functional, Eye
Oryctolagus cuniculus [14] = species on record: Oryctolagus cuniculus; experiment: The compound was evaluated for fall in intraocular pressure (IOP) of Normotensive rabbits after treatment with one drop (50 microL) of a 2% solution at 90 min (pH 7.0); type: functional, Eye
Oryctolagus cuniculus [15] = species on record: Oryctolagus cuniculus; experiment: The compound was evaluated for fall in intraocular pressure (IOP) of Normotensive rabbits after treatment with one drop (50 microL) of a 2% solution at 30 min (pH 7.0); type: functional, Eye
Oryctolagus cuniculus [16] = species on record: Oryctolagus cuniculus; experiment: The compound was evaluated for fall in intraocular pressure (IOP) of Normotensive rabbits after treatment with one drop (50 microL) of a 2% solution at 60 min (pH 7.0); type: functional, Eye
Oryctolagus cuniculus [17] = species on record: Oryctolagus cuniculus; experiment: The compound was evaluated for fall in intraocular pressure (IOP) of Normotensive rabbits after treatment with one drop (50 microL) of a 2% solution at 0 min (pH 7.0); type: functional, Eye
Oryctolagus cuniculus [18] = species on record: Oryctolagus cuniculus; experiment: The compound was evaluated for fall in intraocular pressure (IOP) of Glaucomatous rabbits after treatment with one drop (50 microL) of a 2% solution at 60 min (pH 6.0); type: functional, Eye
Oryctolagus cuniculus [19] = species on record: Oryctolagus cuniculus; experiment: The compound was evaluated for fall in intraocular pressure (IOP) of Glaucomatous rabbits after treatment with one drop (50 microL) of a 2% solution at 90 min (pH 6.0); type: functional, Eye
Oryctolagus cuniculus [20] = species on record: Oryctolagus cuniculus; experiment: The compound was evaluated for fall in intraocular pressure (IOP) of Glaucomatous rabbits after treatment with one drop (50 microL) of a 2% solution at 30 min (pH 6.0); type: functional, Eye
Oryctolagus cuniculus [21] = species on record: Oryctolagus cuniculus; experiment: The compound was evaluated for fall in intraocular pressure (IOP) of Normotensive rabbits after treatment with one drop (50 microL) of a 2% solution at 0 min (pH 5.5); type: functional, Eye
Oryctolagus cuniculus [22] = species on record: Oryctolagus cuniculus; experiment: The compound was evaluated for fall in intraocular pressure (IOP) of Normotensive rabbits after treatment with one drop (50 microL) of a 2% solution at 30 min (pH 5.5); type: functional, Eye
Oryctolagus cuniculus [23] = species on record: Oryctolagus cuniculus; experiment: The compound was evaluated for fall in intraocular pressure (IOP) of Glaucomatous rabbits after treatment with one drop (50 microL) of a 2% solution at 0 min (pH 6.0); type: functional, Eye
Oryctolagus cuniculus [24] = species on record: Oryctolagus cuniculus; experiment: The compound was evaluated for fall in intraocular pressure (IOP) of Normotensive rabbits after treatment with one drop (50 microL) of a 2% solution at 90 min (pH 5.5); type: functional, Eye
Oryctolagus cuniculus [25] = species on record: Oryctolagus cuniculus; experiment: The compound was evaluated for fall in intraocular pressure (IOP) of Normotensive rabbits after treatment with one drop (50 microL) of a 2% solution at 60 min (pH 5.5); type: functional, Eye
Oryctolagus cuniculus [26] = species on record: Oryctolagus cuniculus; experiment: The compound was evaluated for fall in intraocular pressure (IOP) of Normotensive rabbits after treatment with one drop (50 microL) of a 2% solution at 0 min (pH 6.5); type: functional, Eye
Oryctolagus cuniculus [27] = species on record: Oryctolagus cuniculus; experiment: The compound was evaluated for fall in intraocular pressure (IOP) of Glaucomatous rabbits after treatment with one drop (50 microL) of a 2% solution at 30 min (pH 6.5); type: functional, Eye
Oryctolagus cuniculus [28] = species on record: Oryctolagus cuniculus; experiment: The compound was evaluated for fall in intraocular pressure (IOP) of Glaucomatous rabbits after treatment with one drop (50 microL) of a 2% solution at 90 min (pH 6.5); type: functional, Eye
Oryctolagus cuniculus [29] = species on record: Oryctolagus cuniculus; experiment: The compound was evaluated for fall in intraocular pressure (IOP) of Normotensive rabbits after treatment with one drop (50 microL) of a 2% solution at 90 min (pH 6.5); type: functional, Eye
Oryctolagus cuniculus [30] = species on record: Oryctolagus cuniculus; experiment: The compound was evaluated for fall in intraocular pressure (IOP) of Normotensive rabbits after treatment with one drop (50 microL) of a 2% solution at 60 min (pH 6.5); type: functional, Eye
Oryctolagus cuniculus [31] = species on record: Oryctolagus cuniculus; experiment: The compound was evaluated for fall in intraocular pressure (IOP) of Glaucomatous rabbits after treatment with one drop (50 microL) of a 2% solution at 60 min (pH 6.5); type: functional, Eye
Oryctolagus cuniculus [32] = species on record: Oryctolagus cuniculus; experiment: The compound was evaluated for fall in intraocular pressure (IOP) of Normotensive rabbits after treatment with one drop (50 microL) of a 2% solution at 30 min (pH 6.5); type: functional, Eye
Oryctolagus cuniculus [33] = species on record: Oryctolagus cuniculus; experiment: The compound was evaluated for fall in intraocular pressure (IOP) of Glaucomatous rabbits after treatment with one drop (50 microL) of a 2% solution at 0 min (pH 6.5); type: functional, Eye

Row | SMILES | solubility (physchem) | kin | Change in IOP (Oryctolagus cuniculus [1]) | kin [2] | logD [3] | Change in IOP (Oryctolagus cuniculus [4]) | Change in IOP (Oryctolagus cuniculus [6]) | Ki (Carbonic anhydrase 4) | Ki (Carbonic anhydrase 1) | also measured
1 | CN(CC(=O)NCCC(=O)Nc1nnc(S(N)(=O)=O)s1)C(=N)N | 75 mM (≈ 27.3 mg/mL) | 4.7 h⁻¹ | 9.8 mmHg | 8.5 h⁻¹ | 1.944 | 10.7 mmHg | 6.6 mmHg | 8 nM | 21 nM | Change in IOP (Oryctolagus cuniculus [5]): 14.2 mmHg; Change in IOP (Oryctolagus cuniculus [7]): 14.3 mmHg; Change in IOP (Oryctolagus cuniculus [8]): 8.6 mmHg
2 | NCC(=O)NCC(=O)Nc1ccc(S(=O)(=O)Nc2nnc(S(N)(=O)=O)s2)cc1 | 51 mM (≈ 22.9 mg/mL) | 2 h⁻¹ | 8.8 mmHg | 5 h⁻¹ | 0.754 | 5.9 mmHg | 0 mmHg | 6 nM | 13 nM | Change in IOP (Oryctolagus cuniculus [9]): 11.8 mmHg; Change in IOP (Oryctolagus cuniculus [10]): 7 mmHg; Change in IOP (Oryctolagus cuniculus [11]): 13.1 mmHg; Change in IOP (Oryctolagus cuniculus [12]): 0 mmHg; Change in IOP (Oryctolagus cuniculus [13]): 9.1 mmHg
3 | CN(CC(=O)/N=c1/sc(S(N)(=O)=O)nn1C)C(=N)N |  |  |  |  |  |  |  | 41 nM | 190 nM | Change in IOP (Oryctolagus cuniculus [14]): 9 mmHg; Change in IOP (Oryctolagus cuniculus [15]): 5.5 mmHg; Change in IOP (Oryctolagus cuniculus [16]): 9.2 mmHg; Change in IOP (Oryctolagus cuniculus [17]): 0 mmHg
4 | NCC(=O)Nc1ccc(S(=O)(=O)Nc2nnc(S(N)(=O)=O)s2)cc1 | 65 mM (≈ 25.5 mg/mL) | 3.1 h⁻¹ |  | 5.4 h⁻¹ | 0.043 |  |  | 9 nM | 14 nM | Change in IOP (Oryctolagus cuniculus [18]): 12.5 mmHg; Change in IOP (Oryctolagus cuniculus [19]): 14 mmHg; Change in IOP (Oryctolagus cuniculus [20]): 7.9 mmHg; Change in IOP (Oryctolagus cuniculus [21]): 0 mmHg; Change in IOP (Oryctolagus cuniculus [22]): 5.9 mmHg; Change in IOP (Oryctolagus cuniculus [23]): 0 mmHg; Change in IOP (Oryctolagus cuniculus [24]): 9 mmHg; Change in IOP (Oryctolagus cuniculus [25]): 9.5 mmHg
5 | CN(CC(=O)Nc1nnc(S(N)(=O)=O)s1)C(=N)N |  |  |  |  |  |  |  | 35 nM | 170 nM | Change in IOP (Oryctolagus cuniculus [26]): 0 mmHg; Change in IOP (Oryctolagus cuniculus [27]): 8.5 mmHg; Change in IOP (Oryctolagus cuniculus [28]): 14.5 mmHg; Change in IOP (Oryctolagus cuniculus [29]): 9.1 mmHg; Change in IOP (Oryctolagus cuniculus [30]): 10.1 mmHg; Change in IOP (Oryctolagus cuniculus [31]): 13.4 mmHg; Change in IOP (Oryctolagus cuniculus [32]): 6.5 mmHg; Change in IOP (Oryctolagus cuniculus [33]): 0 mmHg
